Measured values as given in patent US20110217300A1, “Quinazolinone Compounds and Methods of Use Thereof” (priority 2007, published 2011).

How the values were obtained:
Assay in all cases: MTS cell viability assay
Type in all cases: cell-based
[1] = tested on: 786-O; settings: Homo sapiens, 786-0, kidney
Description: (§1) Cell viability was determined by measuring the activity of dehydrogenase enzymes in metabolically active cells using a tetrazolium compound, MTS. The assay was performed as described in Promega Technical Bulletin No. 169 (CellTiter 96 Aqueous Non-Radioactive Cell Proliferation Assay). Two human cancer cell lines were assayed (see, Table 1). Cells were maintained at 37° C. and 5% CO2 in DMEM media (4.5 g/L glucose) supplemented with 10% heat-inactivated FBS, 10 mM L-glutamine, and 10 mM Hepes pH 7.5. Briefly, cells were seeded in 96-well plates as set forth in Table 1 and incubated for 16-24 hours. Candidate compounds were serially diluted in DMSO, further diluted in cell culture media, and then added to cells (final DMSO concentration of 0.33%). Cells were incubated in the presence of candidate compound for 72 hours. MTS stock solution (MTS 2 gm/L, PMS […] in PBS) was added to the cells (final concentration MTS […] and PMS 7.67 mg/L) and incubated for 4 hours. SDS was added to a final concentration of 1.4% and absorbance at 490 nm was measured within two hours using a plate reader. […] GI50 values were given in Table 2 for the compounds listed. The Compound Numbers in Table 2 correspond to the numbers listed parenthetically in the Example titles. Where multiple measurements were made by different technicians, both values are given.
(§2) Cell viability was determined for N-(3-amino-propyl)-3-chloro-N—[(R)-1-(7-chloro-4-oxo-3-phenylamino-3,4-dihydro-quinazolin-2-yl)-but-3-ynyl]-2-fluoro-benzamide (compound I of Table 2). The cell viability assay of Example 105 was used. GI50 was determined using a variety of cell lines. Cells were plated at 100-5000 cells per well. At least 2 replicates were performed. Where multiple measurements were made by different technicians, both values are given.

[2] = tested on: A-375; settings: Homo sapiens, Malignant melanoma
Description: as §1, §2

[3] = tested on: AN3CA; settings: Homo sapiens, AN3-CA, endometrial
Description: as §1, §2

[4] = tested on: ASPC-1; settings: Homo sapiens, ASPC1, pancreas
Description: as §1, §2

[5] = tested on: BDCM; settings: Lymphoblast
Description: as §1, §2

[6] = tested on: COLO-205; settings: Homo sapiens, colon
Description: as §1, §2

[7] = tested on: HEC1A; settings: Homo sapiens, HEC-1-A, endometrial
Description: as §1, §2

[8] = tested on: HPAF-II; settings: Homo sapiens, pancreas
Description: as §1, §2

[9] = tested on: K562; settings: CML
Description: as §1, §2

[10] = tested on: KG-1; settings: Homo sapiens, AML
Description: as §1, §2

[11] = tested on: LoVo; settings: Homo sapiens, Colorectal Carcinoma
Description: as §1, §2

[12] = tested on: MDA-MB-231; settings: Breast adenocarcinoma
Description: as §1, §2

[13] = tested on: MIA-PaCa2; settings: Homo sapiens, MIA PaCa-2, Pancreas
Description: as §1, §2

[14] = tested on: NCI-H358; settings: Homo sapiens, Non-small cell lung cancer, brancioalveolar carcinoma
Description: as §1, §2

[15] = tested on: NCI-H441; settings: Lung Papillary Adenocarcinoma
Description: as §1, §2

[16] = tested on: NCI-H526; settings: Homo sapiens, Lung carcinoma, variant small cell lung cancer
Description: as §1, §2

[17] = tested on: NTERA-2 c1. D1; settings: NTERA2, Testis pluripotent embryonal carcinoma
Description: as §1, §2

[18] = tested on: RT-112; settings: Human urinary bladder cell carcinoma
Description: as §1, §2

[19] = tested on: RT-4; settings: Human urinary bladder cell carcinoma
Description: as §1, §2

[20] = tested on: SK-LMS-1; settings: Leiomyosarcoma
Description: as §1, §2

[21] = tested on: SK-MEL-28; settings: Malignant melanoma
Description: as §1, §2

[22] = tested on: SNU-16; settings: Homo sapiens, Gastric Carcinoma
Description: as §1, §2

[23] = tested on: SNU-1; settings: Homo sapiens, SNU1, Stomach
Description: as §1, §2

[24] = tested on: SNU475; settings: Homo sapiens, SNU-475, liver
Description: as §1, §2

[25] = tested on: THP-1; settings: Homo sapiens, Acute monocytic leukemia
Description: as §1, §2

[26] = tested on: U937; settings: Homo sapiens, U-937, Monocyte Histocytic Lymphoma
Description: as §1, §2

[27] = tested on: WM-266.4; settings: Homo sapiens, WM 266-4, Melanoma
Description: as §1, §2

C#CC[C@H](c1nc2cc(Cl)ccc2c(=O)n1Nc1ccccc1)N(CCCN)C(=O)c1cccc(Cl)c1F [Compound 1, N-(3-Amino-propyl)-3-chloro-N—[(R)-1-(7-chloro-4-oxo-3-phenylamino-3,4-dihydro-quinazolin-2-yl)-but-3-ynyl]-2-fluoro-benzamide]
GI50 [1]: 1740 nM | GI50 [2]: 766 nM | GI50 [3]: 201 nM | GI50 [4]: 549 nM | GI50 [5]: 207 nM | GI50 [6]: 106 nM | GI50 [7]: 316 nM | GI50 [8]: 2060 nM | GI50 ([9]; Homo sapiens, K562, K562): 133 nM | GI50 ([9]; K562, listed as I): 184 nM | GI50 [10]: 1720 nM | GI50 [11]: 359 nM | GI50 ([12]; Homo sapiens, MDA-MB-231, MDA-MB-231): 359 nM | GI50 ([12]; MDA-MB-231, listed as I): 249 nM | GI50 [13]: 259 nM | GI50 [14]: 190 nM | GI50 ([15]; Homo sapiens, NCI-H441, NCI-H441): 3340 nM | GI50 ([15]; NCI-H441, listed as I): 2250 nM | GI50 [16]: 125 nM | GI50 [17]: 63 nM | GI50 [18]: 53 nM | GI50 [19]: 368 nM | GI50 [20]: 2210 nM | GI50 ([21]; Homo sapiens, SK-MEL-28, SK-MEL-28): 2160 nM | GI50 ([21]; SK-MEL-28, listed as I): 3130 nM | GI50 [22]: 136 nM | GI50 [23]: 552 nM | GI50 [24]: 2350 nM | GI50 [25]: 226 nM | GI50 [26]: 155 nM | GI50 [27]: 2300 nM
